What was measured:
[1] = test system: Caco-2 cells; assay: Caco-2 flux assay for cell permeability; format: in vitro ADME; details: Caco-2, 2 h incubation
Method: The cell permeability of a substance can be investigated by means of in vitro testing in a flux assay using Caco-2 cells [M. D. Troutman and D. R. Thakker, Pharm. […] For this purpose, the cells were cultured for 15-16 days on 24-well filter plates. For the determination of permeation, the respective test substance was applied in a HEPES buffer to the cells either apically (A) or basally (B) and incubated for 2 hours. After 0 hours and after 2 hours, samples were taken from the cis and trans compartments. The samples were separated by HPLC (Agilent 1200, Böblingen, Germany) using reverse phase columns. The HPLC system was coupled via a Turbo Ion Spray Interface to a Triple Quadropole mass spectrometer API 4000 (AB SCIEX Deutschland GmbH, Darmstadt, Germany).

[2] = test system: SK-HEP-1; assay: Cytotoxic effect, MTT assay, SK-HEP-1 cells; format: cell-based; details: Homo sapiens, SK-HEP1; Table 2, metabolites
[3] = test system: NCI-H292; assay: Cytotoxic effect, MTT assay, NCI-H292 cells; format: cell-based; details: Homo sapiens, Table 2, metabolites
[4] = target: T1, legumain (Homo sapiens, UniProt Q99538); assay: Legumain assay (enzymatic cleavage); format: biochemical; details: recombinant human legumain, rhLegumain 1 ng/μl, substrate 3 μM, pH 5.0, read-out: half-life of legumain-mediated cleavage to the target compound (converted)
T1 construct: purchased R&D Systems 2199-CY
T1 sequence (Q99538 18-323 limits assumed): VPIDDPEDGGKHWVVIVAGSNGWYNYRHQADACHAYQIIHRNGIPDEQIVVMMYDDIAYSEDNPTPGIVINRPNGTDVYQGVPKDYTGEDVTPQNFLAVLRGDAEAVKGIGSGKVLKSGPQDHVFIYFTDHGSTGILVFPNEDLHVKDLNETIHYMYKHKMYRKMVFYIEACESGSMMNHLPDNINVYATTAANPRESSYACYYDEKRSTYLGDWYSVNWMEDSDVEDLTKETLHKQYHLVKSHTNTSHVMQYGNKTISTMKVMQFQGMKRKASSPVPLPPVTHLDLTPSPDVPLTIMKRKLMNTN
Method: The legumain assay was conducted with recombinant human enzyme. The rhlegumain enzyme solution (catalogue #2199-CY, R&D Systems) was diluted in 50 mM Na acetate buffer/100 mM NaCl, pH 4.0 to the desired concentration and preincubated at 37° C. for 2 h. rhLegumain was then adjusted to a final concentration of 1 ng/μl in 50 mM MES buffer, 250 mM NaCl, pH 5.0. For every legumain-cleavable prodrug to be examined, a mixture was made up in a micro reaction vessel (0.5 ml, from Eppendorf). For this purpose, the substrate solution was adjusted to the desired concentration (double concentration) with 50 mM MES buffer, 250 mM NaCl, pH 5.0. For the kinetic measurement of the enzymatic reaction, 250 μl of the legumain solution were first initially charged and the enzyme reaction was started by adding 250 μl of the substrate solution (final concentration: single concentration; 3 μM). At various points in time, 50 μl samples were taken. Immediately, 100 μl of ice-cold methanol were added to this sample in order to stop the enzymatic reaction, and the sample was then frozen at −20° C. The times selected for sampling were after 0.5 h, 1 h, 3 h and 24 h. The samples were then analysed by means of RP-HPLC analysis and by LC-MS analysis. The determination of the toxophore released enabled the determination of the half-life t1/2 of the enzymatic reaction. […]

[5] = test system: MOLM-13; assay: Cytotoxic effect, MTT assay, MOLM-13 cells; format: cell-based; details: Homo sapiens, Table 2, metabolites
Method: (§1) After 48 h, the medium was replaced. […] The suspension cells were counted and sown into a 96-well culture plate with white bottom (from Costar #3610) (#3610) (MOLM-13: 2000 cells/well; NB4: 7000 cells/well; MV-4-11: 5000 cells/well in a total volume of 100 μl). After 6 hours of incubation at 37° C. and 5% carbon dioxide, the medium was changed and the antibody-drug conjugates or metabolites were added by pipette in 10 μl of culture medium in concentrations of 10^−5M to 10^−13M to the cells (triplicates) in 90 μl. […] After 96 h, the cell proliferation was detected using the MTT assay (ATCC, Manassas, Va., USA, catalogue No. 30-1010K). To this end, the MTT reagent was incubated with the cells for 4 h, followed by lysis of the cells overnight by addition of the detergent. The dye formed was detected at 570 nm (Infinite M1000 pro, Tecan). The measured data were used to calculate the IC50 of the growth inhibition using the DRC (dose response curve). The proliferation of cells which were not treated with test substance but were otherwise identically treated was defined as the 100% figure.

[6] = test system: KPL-4; assay: Cytotoxic effect, MTT assay, KPL-4 cells; format: cell-based; details: Homo sapiens, KPL4; Table 2, metabolites
Method: as §1, with “μl).” for “μl). After 6 hours of incubation at 37° C. and 5% carbon dioxide, the medium was changed and the antibody-drug conjugates or metabolites were added by pipette in 10 μl of culture medium in concentrations of 10^−5M to 10^−13M to the cells (triplicates) in 90 μl.”

SMILES	Papp (B-A) [1] [×10⁻⁶ cm/s]	IC50 [2] [nM]	IC50 [3] [nM]	half-life at 3 μM [4] [min]	IC50 [5] [nM]	IC50 [6] [nM]
CC(C)(C)[C@H](c1cc(-c2cc(F)ccc2F)cn1Cc1ccccc1)N(CC[C@H](N)C(=O)NCCC(=O)N[C@H](CCC(=O)O)C(=O)O)C(=O)CO [Example M1, N-{(2S)-2-Amino-4-[{(1R)-1-[1-benzyl-4-(2,5-difluorophenyl)-1H-pyrrol-2-yl]-2,2-dimethylpropyl}(glycoloyl)amino]butanoyl}-beta-alanyl-D-glutamic acid]	0.27	19.6	174	–	–	–
CNC(=O)[C@H](CCN(C(=O)CO)[C@@H](c1cc(-c2cc(F)ccc2F)cn1Cc1ccccc1)C(C)(C)C)NC(=O)[C@H](CC(N)=O)NC(=O)[C@H](C)NC(=O)[C@H](C)NC(=O)Cc1ccncc1 [Model compound A, N-(Pyridin-4-ylacetyl)-L-alanyl-L-alanyl-N^1-[(2S)-4-[{(1R)-1-[1-benzyl-4-(2,5-difluorophenyl)-1H-pyrrol-2-yl]-2,2-dimethylpropyl}(glycoloyl)amino]-1-(methylamino)-1-oxobutan-2-yl]-L-aspartamide]	–	–	–	24	–	–
CC(C)(C)[C@H](c1cc(-c2cc(F)ccc2F)cn1Cc1ccccc1)N(CCCN)C(=O)CO [Reference Example R3M, N-(3-Aminopropyl)-N-{(1R)-1-[1-benzyl-4-(2,5-difluorophenyl)-1H-pyrrol-2-yl]-2,2-dimethylpropyl}-2-hydroxyacetamide]	–	7.62	0.27	–	0.0669	0.257

From US11660351B2, “Antibody drug conjugates (ADCs) having enzymatically cleavable groups” (Bayer Pharma Aktiengesellschaft, priority 2016, dated 2023)
